# Measurements from patent publication US20180243260A1, “METHODS OF TREATING COGNITIVE AND BEHAVIORAL IMPAIRMENT IN DOWN SYNDROME AND ALZHEIMERS DISEASE PATIENTS” (AVANTI BIOSCIENCES INC., priority 2016, published 2018).
# Target: T1, DYRK1A (Rattus norvegicus, UniProt Q63470)
# T1 construct: 6x histidine tag (HT)
# Test: DYRK1A ELISA non-radioactive kinase assay
# Format: biochemical
# Settings: HT-PRD substrate, 100 μM ATP, 30 min at 30° C.
# Experimental: Decant HT-PRD solution, wash the wells twice with Tris dilution buffer. Block each well with 150 μl BSA/PBST blocking buffer PBST (2% BSA in PBS with 0.25% Tween 20) for at least 1 hr at room temperature.
# Decant the blocking solution and wash the wells 3-4 times with Tris dilution buffer. Perform DYRK1A phosphorylation in the well with 100 μl reaction buffer (25 mM HEPES, pH 7.4, 100 mM NaCl, 5 mM MgCl2, and 100 μM ATP) containing DYRK1A (eg. 5-10 ng purified HT-DYRK1A) and inhibitor, if necessary, for 30 min at 30° C. […] Use 80 μl of this mixture in the reaction will give final ATP concentration of 100 μM. ATP concentrations may be adjusted if necessary. • 2. Add 10 μl inhibitor. If the inhibitor is dissolved in DMSO, shake the plate gently for 1 min before adding kinase. • 3. Dilute DYRK1A in Tris dilution buffer to a concentration of 0.5 ng/l (prepare fresh every time). • 4. Initiate phosphorylation by adding 10 l DYRK1A to each well.
# Decant the phosphorylation solution and wash the wells three times with PBST. Add 100 μl diluted antibody 3D3 (eg. 2˜3K dilution of 1.5 mg/ml stock in BSA blocking buffer) and incubate for 1 hr at room temperature.
# Decant the primary antibody solution and wash the wells three times with PBST. Add 100 μl diluted AP-conjugated anti-mouse IgG (5K dilution of anti-mouse IgG-AP in BSA blocking buffer) and incubate for 1 hr at room temperature.
# Color Development and Detection.
# Decant the secondary antibody and wash the wells extensively (3-4 times) with AP buffer (10 mM Tris-HCl, pH 9.5, 10 mM NaCl, and 5 mM MgCl2). Add 100 μl p-nitrophenyl phosphate solution (1 mg/ml in AP buffer or 1 PNPP tablet per 5 ml 1× diethanolamine substrate buffer) and incubate the plate at 30° C. Yellow color should start appearing in a few minutes. OD at 405 nm usually can be read between 10-30 min.
row,Compound,IC50
1,"Oc1cc(O)c2c(c1)O[C@@H](c1cc(O)c(O)c(O)c1)[C@H](O)C2 [(2S,3R)-2-(3,4,5-trihydroxyphenyl)chroman-3,5,7-triol]",> 100 µM
2,"O=C(O[C@@H]1Cc2c(O)cc(O)cc2O[C@@H]1c1ccc(O)c(O)c1)c1cc(O)c(O)c(O)c1 [(2R,3R)-2-(3,4-dihydroxyphenyl)-5,7-dihydroxychroman-3-yl 3,4,5-trihydroxybenzoate]",0.52 µM
3,"Oc1cc(O)c2c(c1)O[C@H](c1cc(O)c(O)c(O)c1)[C@H](O)C2 [(2R,3R)-2-(3,4,5-trihydroxyphenyl)chroman-3,5,7-triol]",> 100 µM

# Continued, values first:
row,IC50,Compound
1,5.8 µM,"COc1c(O)cc([C@H]2Oc3cc(O)cc(O)c3C[C@H]2OC(=O)c2cc(O)c(O)c(O)c2)cc1O [(2R,3R)-2-(3,5-dihydroxy-4-methoxyphenyl)-5,7-dihydroxychroman-3-yl 3,4,5-trihydroxybenzoate]"
2,0.18 µM,"O=C(O[C@@H]1Cc2c(O)cc(O)cc2O[C@H]1c1ccc(O)c(O)c1)c1cc(O)c(O)c(O)c1 [(2S,3R)-2-(3,4-dihydroxyphenyl)-5,7-dihydroxychroman-3-yl 3,4,5-trihydroxybenzoate]"
3,> 100 µM,"Oc1cc(O)c2c(c1)O[C@H](c1ccc(O)c(O)c1)[C@H](O)C2 [(2R,3R)-2-(3,4-dihydroxyphenyl)chroman-3,5,7-triol]"
4,> 100 µM,"Oc1cc(O)c2c(c1)O[C@@H](c1ccc(O)c(O)c1)[C@H](O)C2 [(2S,3R)-2-(3,4-dihydroxyphenyl)chroman-3,5,7-triol]"
5,25.1 µM,"COc1c(O)cc(C(=O)O[C@@H]2Cc3c(O)cc(O)cc3O[C@@H]2c2cc(O)c(O)c(O)c2)cc1O [(2R,3R)-5,7-dihydroxy-2-(3,4,5-trihydroxyphenyl)chroman-3-yl 3,5-dihydroxy-4-methoxybenzoate]"

# Target: DYRK1A (Homo sapiens, UniProt Q13627)
# Test: not given
# Settings: non-ATP competitive DYRK1A inhibitor; Bain, J., et al., Biochem J 408 (2007); cited from earlier work
row,Compound,IC50
1,"O=C(O[C@@H]1Cc2c(O)cc(O)cc2O[C@@H]1c1cc(O)c(O)c(O)c1)c1cc(O)c(O)c(O)c1 [EGCG, Epigallocatechin gallate]",0.33 µM

# Test system: DS patients
# Test: not given
# Settings: randomized, double-blinded placebo-controlled study, De la Torre et al. 2014; cited from earlier work
row,Compound,"memory recognition, working memory and quality of life"
1,"O=C(O[C@@H]1Cc2c(O)cc(O)cc2O[C@@H]1c1cc(O)c(O)c(O)c1)c1cc(O)c(O)c(O)c1 [EGCG, Epigallocatechin gallate]","improved memory recognition, working memory and quality of life"
